Results: patent US6552083B1, “Agents inhibiting chronic rejection reactions after organ transplantation” (Kissei Pharmaceutical Co., Ltd., priority 1999, dated 2003)

What was measured:
[1] = test system: coronary arteries of transplanted heart; test: Test for confirming inhibitory activity against intimal thickening in transplant organ after organ transplantation (mouse heart transplantation model); format: in vivo, mice (DBA/2 donor, B10D2 recipient)
From the text: (§1) In a transplantation test, 4 to 6-week-old DBA/2 male mice each weighing 20 to 25 g (available from Charles River Laboratories) were used an donor animals, and 4 to 6-week-old B10D2 male mice each weighing 20 to 25 g (ava from Charles River Laboratories) were used as recipient animals. From three days before testing, mice in a control group were fed on a standard diet, and mice in a drug-treated group were given a 0.25% or 0.5% tranilast-containing diet (CE-2). On the day of testing, the heart was excised from a donor mouse and transplanted into the abdomen of a recipient mouse in accordance with the procedures described in the literature (Science, vol. 255, pp. 1125-1127 (1992)). Fourteen and twenty-eight days from the transplantation, the transplanted heart was excised and placed in formalin. Three specimens (thickness: […]) were sliced from different sites of the excised heart. Each slice was stained with Elastica van Geison stain, and the coronary arteries were observed under a microscope to calculate a vascular stenosis ratio according to the following equation: Vascular stenosis ratio (%)=[(area inside of elastica −lumen area)/area inside of elastica]×100

[2] = test system: transplanted heart; test: Test for evaluating rejection in transplant organ after organ transplantation (infiltration of lymphocytes into the tissue); format: in vivo, mice (DBA/2 donor, B10D2 recipient)
From the text: as §1, with “The degree” for “Vascular stenosis ratio (%)=[(area inside”, “rejection in the hearts transplanted to and excited from the recipient mice in the same manner as in Example 1 was evaluated in terms” for “elastica −lumen area)/area inside”, “the degree of infiltration of lymphocytes into the tissue in accordance with the Working Formation of the International Society for Heart and Lung Transplantation and with the following criteria. 0 . . . No infiltration of lymphocytes into the tissue was seen. 1 . . . Slight infiltration of lymphocytes into the tissue was observed. 2 . . . Medium infiltration of lymphocytes into the tissue was observed. 3 . . . Severe infiltration of lymphocytes into the tissue was observed.” for “elastica]×100”

[3] = 0.25% or 0.5% tranilast-containing diet, mouse heart transplantation

## COc1ccc(/C=C/C(=O)Nc2ccccc2C(=O)O)cc1OC [Tranilast, N-(3,4-dimethoxycinnamoyl)anthranililc acid]
[1]; [3]
  Inhibition of vascular thickening in a transplanted heart (result in words): dose-dependently significantly inhibits vascular thickening in a transplanted heart
[1]; 0.25% tranilast-containing feed from 3 days before transplantation, 14-days post-operation, control group 70.3
  Vascular Stenosis Ratio (%): 55.5%
[1]; 0.25% tranilast-containing feed, 28-days post-operation, control group 73.3
  Vascular Stenosis Ratio (%): 61.9%
[1]; 0.5% tranilast-containing feed, 14-days post-operation, control group 70.3
  Vascular Stenosis Ratio (%): 45.5%
[1]; 0.5% tranilast-containing feed, 28-days post-operation, control group 73.3
  Vascular Stenosis Ratio (%): 47.7%
[2]; [3]
  Infiltration of lymphocytes into the tissue (result in words): alleviates infiltration of lymphocytes into the tissue
[2]; score 0 (no) to 3 (severe) lymphocyte infiltration, 0.25% tranilast-containing feed, 14-days post-operation, control group 2.07
  Degree of rejection: 1.70
[2]; score 0 to 3, 0.25% tranilast-containing feed, 28-days post-operation, control group 2.88
  Degree of rejection: 2.38
[2]; score 0 to 3, 0.5% tranilast-containing feed, 14-days post-operation, control group 2.07
  Degree of rejection: 1.80
[2]; score 0 to 3, 0.5% tranilast-containing feed, 28-days post-operation, control group 2.88
  Degree of rejection: 2.08
